# Test results: patent US20260131009A1, “BIFUNCTIONAL PI3K-ALPHA INHIBITORS AND USES THEREOF” (Relay Therapeutics, Inc., priority 2021, published 2026)
# Target: PI3Kα (Homo sapiens, UniProt P42336, H1047R)
# Test: ADP-Glo IC50 assay
# Type: biochemical
# Conditions: class symbols; key not given
# Sequence of PI3Kα (P42336 whole entry H1047R): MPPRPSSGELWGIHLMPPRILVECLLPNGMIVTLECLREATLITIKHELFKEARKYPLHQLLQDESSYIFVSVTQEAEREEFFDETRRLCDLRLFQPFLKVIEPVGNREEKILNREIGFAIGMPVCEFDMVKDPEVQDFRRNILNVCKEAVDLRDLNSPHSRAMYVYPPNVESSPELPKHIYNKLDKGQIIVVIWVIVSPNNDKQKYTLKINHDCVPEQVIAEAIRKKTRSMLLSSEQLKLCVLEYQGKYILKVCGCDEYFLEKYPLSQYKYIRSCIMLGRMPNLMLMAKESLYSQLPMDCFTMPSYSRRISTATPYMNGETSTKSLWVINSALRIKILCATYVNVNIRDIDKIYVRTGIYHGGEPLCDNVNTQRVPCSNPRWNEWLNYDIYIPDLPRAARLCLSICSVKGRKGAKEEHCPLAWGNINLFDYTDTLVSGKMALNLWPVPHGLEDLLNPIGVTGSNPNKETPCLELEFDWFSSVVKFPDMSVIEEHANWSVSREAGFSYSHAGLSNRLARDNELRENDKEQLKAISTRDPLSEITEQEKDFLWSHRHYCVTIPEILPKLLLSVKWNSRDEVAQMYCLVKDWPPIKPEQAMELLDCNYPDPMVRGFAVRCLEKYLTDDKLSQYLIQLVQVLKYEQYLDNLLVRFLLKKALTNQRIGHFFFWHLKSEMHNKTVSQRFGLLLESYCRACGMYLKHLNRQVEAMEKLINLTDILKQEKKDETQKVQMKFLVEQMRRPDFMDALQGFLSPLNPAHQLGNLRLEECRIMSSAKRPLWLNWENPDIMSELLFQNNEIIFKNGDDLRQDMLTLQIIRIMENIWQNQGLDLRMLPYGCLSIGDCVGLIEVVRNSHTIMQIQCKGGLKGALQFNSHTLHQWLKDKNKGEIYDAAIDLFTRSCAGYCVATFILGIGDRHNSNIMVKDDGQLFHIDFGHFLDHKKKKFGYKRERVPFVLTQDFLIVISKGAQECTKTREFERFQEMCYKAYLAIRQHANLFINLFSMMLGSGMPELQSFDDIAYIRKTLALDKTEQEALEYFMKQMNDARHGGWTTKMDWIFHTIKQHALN
# Sequence of PI3Kα (P27986 whole entry partner): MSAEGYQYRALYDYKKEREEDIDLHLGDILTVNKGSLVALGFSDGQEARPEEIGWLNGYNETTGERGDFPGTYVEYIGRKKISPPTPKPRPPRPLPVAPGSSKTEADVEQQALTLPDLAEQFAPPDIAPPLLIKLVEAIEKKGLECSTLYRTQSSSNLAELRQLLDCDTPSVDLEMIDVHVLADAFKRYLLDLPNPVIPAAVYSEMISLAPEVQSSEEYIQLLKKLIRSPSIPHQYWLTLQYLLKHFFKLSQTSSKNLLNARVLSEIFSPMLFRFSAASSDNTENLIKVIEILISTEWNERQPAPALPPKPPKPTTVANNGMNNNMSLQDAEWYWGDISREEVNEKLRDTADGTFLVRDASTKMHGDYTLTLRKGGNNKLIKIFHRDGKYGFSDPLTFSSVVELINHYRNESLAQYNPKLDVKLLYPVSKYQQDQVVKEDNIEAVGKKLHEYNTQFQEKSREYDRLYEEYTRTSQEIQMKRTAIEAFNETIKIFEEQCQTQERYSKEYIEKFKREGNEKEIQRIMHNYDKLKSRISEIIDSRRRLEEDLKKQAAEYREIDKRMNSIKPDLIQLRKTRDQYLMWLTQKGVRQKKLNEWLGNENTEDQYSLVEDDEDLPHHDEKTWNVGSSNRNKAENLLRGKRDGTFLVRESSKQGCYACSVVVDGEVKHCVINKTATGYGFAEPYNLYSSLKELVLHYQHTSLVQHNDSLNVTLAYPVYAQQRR
row,SMILES,IC50
1,Cc1ncsc1-c1ccc([C@H](C)NC(=O)[C@@H]2C[C@@H](O)CN2C(=O)[C@@H](NC(=O)CCCCCCCCCNC(=O)c2cc(NC(=O)c3cc(F)cc(C(F)(F)F)c3)c3c(c2)C(=O)N[C@@H]3c2cc(F)ccc2Cl)C(C)(C)C)cc1 [Example I-81],100 to 500 nM
2,NC(=O)CCCCCCCCCNC(=O)c1cc(NC(=O)c2cc(F)cc(C(F)(F)F)c2)c2c(c1)C(=O)N[C@@H]2c1cc(F)ccc1Cl [Example I-83],< 100 nM
3,O=C1CCC(N2Cc3cc(C#CCN4CCC(NC(=O)c5cnc(Nc6cc(F)ccc6Cl)c(NC(=O)c6csc7ccccc67)c5)CC4)ccc3C2=O)C(=O)N1 (stereo not drawn) [Example I-84],1000 to 10000 nM
4,O=C1CCC(N2C(=O)c3ccc(NCCCCCNC(=O)c4cc(NC(=O)c5cc(F)cc(C(F)(F)F)c5)c5c(c4)C(=O)N[C@H]5c4cc(F)ccc4Cl)cc3C2=O)C(=O)N1 (stereo partly drawn) [Example I-85],< 100 nM
5,O=C(O)CCCCCCCCCNC(=O)c1cc(NC(=O)c2cc(F)cc(C(F)(F)F)c2)c2c(c1)C(=O)N[C@H]2c1cc(F)ccc1Cl [Example I-86],1000 to 10000 nM
6,Cc1ncsc1-c1ccc([C@H](C)NC(=O)[C@@H]2C[C@@H](O)CN2C(=O)[C@@H](NC(=O)CCCCCCCCCNC(=O)c2cc(NC(=O)c3cc(F)cc(C(F)(F)F)c3)c3c(c2)C(=O)N[C@H]3c2cc(F)ccc2Cl)C(C)(C)C)cc1 [Example I-88],500 to 1000 nM
7,O=C1CCC(N2C(=O)c3ccc(NCCCCCCCNC(=O)c4cc(NC(=O)c5cc(F)cc(C(F)(F)F)c5)c5c(c4)C(=O)N[C@@H]5c4cc(F)ccc4Cl)cc3C2=O)C(=O)N1 (stereo partly drawn) [Example I-89],500 to 1000 nM
8,O=C1CCC(N2C(=O)c3ccc(NCCCCCCCNC(=O)c4cc(NC(=O)c5cc(F)cc(C(F)(F)F)c5)c5c(c4)C(=O)N[C@H]5c4cc(F)ccc4Cl)cc3C2=O)C(=O)N1 (stereo partly drawn) [Example I-90],< 100 nM
9,Cc1cc(Br)c2oc(N3CCN(C(=O)CCOCCOCCNC(=O)c4cnc(Nc5ccccc5C)c(NC(=O)c5csc6ccccc56)c4)CC3)cc(=O)c2c1 [Example I-91],1000 to 10000 nM
10,O=C(CCCCCCCNC(=O)c1cc(NC(=O)c2cc(F)cc(C(F)(F)F)c2)c2c(c1)C(=O)N[C@@H]2c1cc(F)ccc1Cl)NCc1ccc2c(c1)CN(C1CCC(=O)NC1=O)C2=O (stereo partly drawn) [Example I-92],500 to 1000 nM
11,O=C(CCCCCCCNC(=O)c1cc(NC(=O)c2cc(F)cc(C(F)(F)F)c2)c2c(c1)C(=O)N[C@H]2c1cc(F)ccc1Cl)NCc1ccc2c(c1)CN(C1CCC(=O)NC1=O)C2=O (stereo partly drawn) [Example I-93],< 100 nM
12,O=C1CCC(N2C(=O)c3ccc(NCCCCNC(=O)c4cc(NC(=O)c5cc(F)cc(C(F)(F)F)c5)c5c(c4)C(=O)N[C@@H]5c4cc(F)ccc4Cl)cc3C2=O)C(=O)N1 (stereo partly drawn) [Example I-94],500 to 1000 nM
13,O=C1CCC(N2Cc3cc(C#CCNC(=O)c4cnc(Nc5cc(F)ccc5Cl)c(NC(=O)c5csc6ccccc56)c4)ccc3C2=O)C(=O)N1 (stereo not drawn) [Example I-95],< 100 nM
14,O=C1CCC(N2C(=O)c3ccc(NCCCNC(=O)c4cc(NC(=O)c5cc(F)cc(C(F)(F)F)c5)c5c(c4)C(=O)N[C@@H]5c4cc(F)ccc4Cl)cc3C2=O)C(=O)N1 (stereo partly drawn) [Example I-96],100 to 500 nM
15,O=C1CCC(N2C(=O)c3ccc(NCCCCNC(=O)c4cnc(Nc5cc(F)ccc5Cl)c(NC(=O)c5csc6ccccc56)c4)cc3C2=O)C(=O)N1 (stereo not drawn) [Example I-97],100 to 500 nM
16,O=C1CCC(N2C(=O)c3ccc(NCCCNC(=O)c4cc(NC(=O)c5cc(F)cc(C(F)(F)F)c5)c5c(c4)C(=O)N[C@H]5c4cc(F)ccc4Cl)cc3C2=O)C(=O)N1 (stereo partly drawn) [Example I-98],< 100 nM
17,O=C1CCC(N2C(=O)c3ccc(NCCCNC(=O)c4cnc(Nc5cc(F)ccc5Cl)c(NC(=O)c5csc6ccccc56)c4)cc3C2=O)C(=O)N1 (stereo not drawn) [Example I-99],100 to 500 nM
18,O=C1CCC(N2C(=O)c3ccc(NCCCCNC(=O)c4cc(NC(=O)c5cc(F)cc(C(F)(F)F)c5)c5c(c4)C(=O)N[C@H]5c4cc(F)ccc4Cl)cc3C2=O)C(=O)N1 (stereo partly drawn) [Example I-100],< 100 nM
19,Cc1cc(Br)c2oc(N3CCN(C(=O)CCCCCNC(=O)c4cnc(Nc5ccccc5C)c(NC(=O)c5csc6ccccc56)c4)CC3)cc(=O)c2c1 [Example I-101],100 to 500 nM
20,O=C1CCC(N2Cc3cc(C#CCNC(=O)c4cc(NC(=O)c5cc(F)cc(C(F)(F)F)c5)c5c(c4)C(=O)N[C@@H]5c4cc(F)ccc4Cl)ccc3C2=O)C(=O)N1 (stereo partly drawn) [Example I-102],< 100 nM
21,NC(=O)CCCCCCCCCNC(=O)c1cc(NC(=O)c2nsc3ccccc23)c2n1CC(=O)N[C@@H]2c1cc(F)ccc1Cl [Example I-103],< 100 nM
22,NC(=O)CCCCCCCCCNC(=O)c1cc(NC(=O)c2nsc3ccccc23)c2n1CC(=O)N[C@H]2c1cc(F)ccc1Cl [Example I-104],< 100 nM
23,Cc1ncsc1-c1ccc(CNC(=O)[C@@H]2C[C@@H](O)CN2C(=O)[C@@H](NC(=O)CCCCCCCCCNC(=O)c2cc(NC(=O)c3nsc4ccccc34)c3n2CC(=O)N[C@H]3c2cc(F)ccc2Cl)C(C)(C)C)cc1 [Example I-105],500 to 1000 nM
24,O=C1CCC(N2Cc3cc(C(=O)NCCCCCCCCCNC(=O)c4cc(NC(=O)c5nsc6ccccc56)c5n4CC(=O)N[C@@H]5c4cc(F)ccc4Cl)ccc3C2=O)C(=O)N1 (stereo partly drawn) [Example I-106],< 100 nM

row,SMILES,IC50
1,Cc1ncsc1-c1ccc(CNC(=O)[C@@H]2C[C@@H](O)CN2C(=O)[C@@H](NC(=O)CCCCCCCCCNC(=O)c2cc(NC(=O)c3nsc4ccccc34)c3n2CC(=O)N[C@@H]3c2cc(F)ccc2Cl)C(C)(C)C)cc1 [Example I-107],< 100 nM
2,Cc1cc(Br)c2oc(N3CCN(C(=O)CCCCCCNC(=O)c4cnc(Nc5ccccc5C)c(NC(=O)c5csc6ccccc56)c4)CC3)cc(=O)c2c1 [Example I-108],100 to 500 nM
3,Cc1ccccc1Nc1ncc(C(=O)N[C@H](CCC(=O)N[C@H](C(=O)N2C[C@H](O)C[C@H]2C(=O)NCc2ccc(-c3scnc3C)cc2)C(C)(C)C)C(O)O)cc1NC(=O)c1csc2ccccc12 [Example I-109],1000 to 10000 nM
4,O=C1CCC(N2Cc3cc(C#CCNC(=O)c4cc(NC(=O)c5cc(F)cc(C(F)(F)F)c5)c5c(c4)C(=O)N[C@H]5c4cc(F)ccc4Cl)ccc3C2=O)C(=O)N1 (stereo partly drawn) [Example I-110],< 100 nM
5,Cc1cc([C@@H](C)Nc2ccccc2)c2oc(N3CCN(C(=O)CCOCCOCCNC(=O)c4cnc(Nc5ccccc5C)c(NC(=O)c5csc6ccccc56)c4)CC3)cc(=O)c2c1 [Example I-111],< 100 nM
6,Cc1cc([C@H](C)Nc2ccccc2)c2oc(N3CCN(C(=O)CCOCCOCCNC(=O)c4cnc(Nc5ccccc5C)c(NC(=O)c5csc6ccccc56)c4)CC3)cc(=O)c2c1 [Example I-112],1000 to 10000 nM
7,Cc1ncsc1-c1ccc([C@H](C)NC(=O)[C@@H]2C[C@@H](O)CN2C(=O)[C@@H](NC(=O)CCCCCCCCCNC(=O)c2cc(NC(=O)c3nsc4ccccc34)c3n2CC(=O)N[C@H]3c2cc(F)ccc2Cl)C(C)(C)C)cc1 [Example I-113],100 to 500 nM
8,Cc1cc([C@@H](C)Nc2ccccc2C(=O)O)c2oc(N3CCN(C(=O)CCOCCOCCNC(=O)c4cnc(Nc5ccccc5C)c(NC(=O)c5csc6ccccc56)c4)CC3)cc(=O)c2c1 [Example I-125],< 100 nM
9,Cc1cc([C@H](C)Nc2ccccc2C(=O)O)c2oc(N3CCN(C(=O)CCOCCOCCNC(=O)c4cnc(Nc5ccccc5C)c(NC(=O)c5csc6ccccc56)c4)CC3)cc(=O)c2c1 [Example I-126],100 to 500 nM
10,Cc1cc([C@H](C)Nc2ccccc2C(=O)O)c2oc(N3CCN(C(=O)CCC(=O)NCc4ccc5c(c4)C(=O)N(C4CCC(=O)NC4=O)C5)CC3)cc(=O)c2c1 (stereo partly drawn) [Example I-127],1000 to 10000 nM
11,Cc1cc([C@H](C)Nc2ccccc2C(=O)O)c2oc(N3CCN(C(=O)CCCCCNc4ccc5c(c4)C(=O)N(C4CCC(=O)NC4=O)C5=O)CC3)cc(=O)c2c1 (stereo partly drawn) [Example I-128],1000 to 10000 nM
12,Cc1cc([C@H](C)Nc2ccccc2C(=O)O)c2oc(N3CCN(C(=O)CCCCCCNc4ccc5c(c4)C(=O)N(C4CCC(=O)NC4=O)C5=O)CC3)cc(=O)c2c1 (stereo partly drawn) [Example I-129],1000 to 10000 nM
13,Cc1cc([C@H](C)Nc2ccccc2C(=O)O)c2oc(N3CCN(C(=O)CCNc4ccc5c(c4)C(=O)N(C4CCC(=O)NC4=O)C5=O)CC3)cc(=O)c2c1 (stereo partly drawn) [Example I-130],1000 to 10000 nM
14,Cc1cc([C@@H](C)Nc2ccccc2C(=O)O)c2oc(N3CCN(C(=O)CCCCCNc4ccc5c(c4)C(=O)N(C4CCC(=O)NC4=O)C5=O)CC3)cc(=O)c2c1 (stereo partly drawn) [Example I-132],500 to 1000 nM
15,Cc1cc([C@H](C)Nc2ccccc2C(=O)O)c2oc(N3CCN(C(=O)CCCNc4cccc5c4C(=O)N(C4CCC(=O)NC4=O)C5=O)CC3)cc(=O)c2c1 (stereo partly drawn) [Example I-133],1000 to 10000 nM
16,Cc1cc([C@H](C)Nc2ccccc2C(=O)O)c2oc(N3CCN(C(=O)CCNc4cccc5c4C(=O)N(C4CCC(=O)NC4=O)C5=O)CC3)cc(=O)c2c1 (stereo partly drawn) [Example I-134],1000 to 10000 nM
17,Cc1cc([C@@H](C)Nc2ccccc2C(=O)O)c2oc(N3CCN(C(=O)CCNc4cccc5c4C(=O)N(C4CCC(=O)NC4=O)C5=O)CC3)cc(=O)c2c1 (stereo partly drawn) [Example I-135],500 to 1000 nM
18,Cc1cc([C@H](C)Nc2ccccc2C(=O)O)c2oc(N3CCN(C(=O)CCCCCCCNc4cccc5c4C(=O)N(C4CCC(=O)NC4=O)C5=O)CC3)cc(=O)c2c1 (stereo partly drawn) [Example I-136],1000 to 10000 nM
19,Cc1cc([C@H](C)Nc2ccccc2C(=O)O)c2oc(N3CCN(C(=O)CCCCCNc4cccc5c4C(=O)N(C4CCC(=O)NC4=O)C5=O)CC3)cc(=O)c2c1 (stereo partly drawn) [Example I-137],1000 to 10000 nM
20,Cc1cc([C@H](C)Nc2ccccc2C(=O)O)c2oc(N3CCN(C(=O)CCOCCNc4ccc5c(c4)C(=O)N(C4CCC(=O)NC4=O)C5=O)CC3)cc(=O)c2c1 (stereo partly drawn) [Example I-138],1000 to 10000 nM
21,Cc1cc([C@@H](C)Nc2ccccc2C(=O)O)c2oc(N3CCN(C(=O)CCNc4ccc5c(c4)C(=O)N(C4CCC(=O)NC4=O)C5=O)CC3)cc(=O)c2c1 (stereo partly drawn) [Example I-140],500 to 1000 nM
22,Cc1cc([C@@H](C)Nc2ccccc2C(=O)O)c2oc(N3CCN(C(=O)CCCNc4cccc5c4C(=O)N(C4CCC(=O)NC4=O)C5=O)CC3)cc(=O)c2c1 (stereo partly drawn) [Example I-141],500 to 1000 nM
23,Cc1cc([C@@H](C)Nc2ccccc2C(=O)O)c2oc(N3CCN(C(=O)CCCCCNc4cccc5c4C(=O)N(C4CCC(=O)NC4=O)C5=O)CC3)cc(=O)c2c1 (stereo partly drawn) [Example I-142],500 to 1000 nM
24,Cc1cc([C@@H](C)Nc2ccccc2C(=O)O)c2oc(N3CCN(C(=O)CCCCCCCNc4cccc5c4C(=O)N(C4CCC(=O)NC4=O)C5=O)CC3)cc(=O)c2c1 (stereo partly drawn) [Example I-143],1000 to 10000 nM
